Results as given in a melting point compilation (Tetko et al.; mined from patent text by program, amines drawn as free bases though some values may be those of a salt).

melting point [°C]	Compound
132 to 135	CCOC(=O)c1ccc(-c2ccc(-c3ccccc3OCOC)c(-c3ccc4c(c3)C(C)(C)CCC4(C)C)c2)cc1
89.2 to 89.7	O=Cc1ccc(OCc2ccccn2)cc1O
46.7	CCCCCCNC(=O)c1ccc(N2N=C(CCC)C(=CNc3ccccc3CC)C2=O)cc1
226 to 230	COc1cc2ncc(C#N)c(Nc3cccc(F)c3)c2cc1OC
92 to 95	CCCCn1c(=O)n(CC=C(C)C)c(=O)c2c1ncn2S(=O)(=O)c1ccc(OC)c(OC)c1
59 to 61	N#CCCN(CCC#N)CCC#N
93 to 94	CC(=O)O[C@H]1C=C(Br)C(=O)[C@@H]2O[C@H]12
175 to 176	Cc1ccc(S(=O)(=O)N2CCC(c3cccc4c3CCCC(C(=O)Nc3ccc(CN(C)C5CCOCC5)cc3)=C4)CC2)cc1
189 to 191	O=C(CCc1ccc(NC(=O)c2ccccc2)cc1)NO
203 to 205	CN(C)c1ccc(C2=NN(S(=O)(=O)c3ccc(I)cc3)CCC2)cc1
100 to 102	CNCC1Cc2cc(Cl)cc(-c3ccccc3OC)c2O1 (stereo not drawn)
215 to 218	CC(Oc1ncn(-c2ccc(C(F)(F)F)cc2)n1)C(=O)O (stereo not drawn)
114 to 120	O=C1CC(c2ccccc2)C(=O)N1c1cc(Cc2n[nH]c(=O)c3ccccc23)ccc1F (stereo not drawn)
192 to 193	O=C(NCc1ccc(Br)cc1F)c1ccc(Br)cc1[N+](=O)[O-]
228 to 229	COc1cc2c(c(Cl)c1Cl)SC(c1ccccc1)C2=O (stereo not drawn)
> 270	COc1cc2c(cc1OC)-c1n[nH]c(Nc3cc(Cl)cc(Cl)c3)c1C2
153 to 154	FC(F)(F)c1ccc(CN2CCNc3ncc(I)cc32)o1
129 to 131	CC1(C)OC(C=Cc2cc(Cl)cc(Cl)c2)=CC1=O
130 to 138	CCCCCCCCCC(O)CNCCNCC(O)CCCCCCCCC (stereo not drawn)
> 220	Nc1ccc(Oc2ccc(Oc3ccc(N)c(O)c3)cc2)cc1O
256 to 257	Cn1nc2c(N)nc3ccccc3c2c1CC(C)(C)O
104 to 106	Cn1c(=O)oc2cc(CCBr)ccc21
150 to 152	CCOC(=O)c1ccc(OC)nc1C(F)(F)F
154 to 157	CC(=O)Nc1ccc(F)cc1S(=O)(=O)CC#N
175 to 178	CS(=O)(=O)c1cc(S(N)(=O)=O)sc1CO

melting point [°C]	Compound
195 to 197	Cn1cc(Br)cc(Nc2cc3n(n2)CCOC3)c1=O
154 to 156	ICCOc1ccc(C2=C(c3ccccc3)CCCc3ccccc32)cc1
135 to 136	N#Cc1ccc(-c2ccc(OC[C@H](O)CCc3cccnc3)cc2)cc1
168	Cc1cc(=O)c(Oc2ccccc2C)c(-c2ccc(S(C)(=O)=O)cc2)o1
123 to 126	Oc1ccccc1C=NC1CCOc2ccccc21 (stereo not drawn)
203 to 204	CC(O)CCNC(=O)C1CCC(Nc2nccc(-n3ncc4ccccc43)n2)CC1 (stereo not drawn)
133 to 135	CC1(CC(=O)Nc2cccc3ncccc23)CCCCC1
148 to 150	Cc1nsc(Br)c1S(N)(=O)=O
134	O=C(NS(=O)(=O)c1ccccc1)c1ccc(C=CC(=O)N2CCc3c([nH]c4ccccc34)C2c2ccc3c(c2)OCO3)cc1 (stereo not drawn)
101 to 103	C#CC1CCN(C(=O)c2ccccc2)CC1
101 to 104	COc1ccc(C2=NN(Cc3ccccc3Cl)C(=O)[C@H]3CCCC[C@@H]23)cc1OC (relative stereo)
104 to 106	NNc1nc(F)c(C(F)(F)F)cc1Cl
126	CC(C)(C)c1ccc(Cn2[nH]c(N)cc2=O)cc1
130 to 131	Oc1cc2c(cc1CNc1ccccc1)OCC2
109 to 112	CC1=C(C)C(=O)C(CC[C@](C)(O)CO)=C(C)C1=O
> 280	O=C1CN2Cc3c(O)cccc3N=C2N1
155 to 156	CC1Oc2cc3nc(SCc4ccccn4)[nH]c3cc2O1
178 to 179	CSC(Cc1ccc2oc(Cc3nc(-c4ccccc4)oc3C)cc2c1)C(=O)O (stereo not drawn)
113 to 116	CCOC(=O)C1=Cc2cc(C=NO)ccc2OC1C(F)(F)F (stereo not drawn)
64.4 to 66.3	Fc1cc(Br)ccc1OCc1ccccc1
55 to 57	Cc1cnccc1C(CCC(=O)O)C(=O)c1cccc(OCc2ccccc2)c1 (racemic)
74.5 to 76.9	O=C(O)C(CC1CCCC1)c1ccc(Cl)c(Cl)c1 (stereo not drawn)
138 to 140	CCCc1c(OCCCS(=O)(=O)c2ccc(C(=O)NCC(=O)OCC)cc2)ccc(C(C)=O)c1O
126 to 127	N#Cc1cc2c(nc1Cl)CCCCC2
224 to 226	COC1(OC)CCN(c2cc3c(cc2F)c(=O)c(C(=O)O)cn3C2CC2)C1

melting point [°C]	Compound
132 to 134	COc1cc(C(C)=O)ccc1OCCCN1CCN(c2n[nH]c3cc(Cl)ccc23)CC1
192 to 194	NS(=O)(=O)c1ccc(NC(=O)CNc2ccccc2)cc1Cl
148 to 151	CCOc1ccc(C(C)=O)cc1S(N)(=O)=O
115 to 118	Cc1cc(C(=O)N[C@@H](CC(C)C)C(=O)N[C@@H](C(C)C)[C@@H](O)c2c(-c3ccccc3)c2=O)n(C)n1
199 to 200	C=CCOc1ccccc1S(=O)(=O)NC(=O)Nc1nc(C)cc(C)n1
158 to 159	ON=Cc1ccc2c(c1)COC2c1ccc(F)cc1 (stereo not drawn)
31.5 to 32.5	CCCCCCCCCCC1COC(=O)N1 (stereo not drawn)
131 to 133	CC1CC(C)CN(C(=O)C2Cc3ccccc3N2)C1 (stereo not drawn)
169 to 170	CC(=O)NC[C@H]1CN(c2ccc(N3CCN(CCN4CCCCC4)CC3)c(F)c2)C(=O)O1
58 to 64	OCCC#Cc1ncccn1
144 to 145	Cc1cc(NC(=O)OC(C)(C)C)c(C)c2c1OC(C)(C)C2=O
58 to 61	CCNC(=O)c1sc(SC)cc1[Si](C)(C)C
253 to 258	O=C(NCCCl)Nc1ccc2cn[nH]c2c1
125 to 126	CC(C)(C)SC1CN(C(=O)OCc2ccccc2)CC1NS(=O)(=O)c1ccc(Oc2ccccc2)cc1 (stereo not drawn)
124 to 126	CCN1CCC(=O)N(c2c(C)cccc2C)C1=S
170 to 172	COc1cccc([C@H]2O[C@H](CC(N)=O)C(=O)N(CC(C)(C)C)c3ccc(Cl)cc32)c1OC
166 to 167	COc1ccc(CC(=O)Nc2c(C)c(C)c3c(c2C)C(c2ccc(C(C)C)cc2)CO3)cc1 (stereo not drawn)
134 to 135	Cc1occc1C(=O)Nc1ccc(Cl)c(C2OCCO2)c1
190 to 193	CC1(C)CC(=O)Nc2cc3nc(-c4cccc(Cl)c4)[nH]c3cc21
169 to 171	Cc1ccc(C(=O)NCC(O)CO)cc1-n1c(C)cc(OCc2ccccc2CNC(=O)Nc2cc(C(C)(C)C)nn2-c2ccc(Cl)c(O)c2)c(Cl)c1=O (stereo not drawn)
114	CC(C)C(=O)Oc1ccc2c(c1)CCC1C2CCC2(C)C1CC(O[Si](C)(C)C(C)(C)C)C2OC(=O)C(C)C (stereo not drawn)
199 to 200	CNc1nc(N(C)C)nc2c1nnn2Cc1ccccc1F
216 to 219	CS(=O)(=O)NCCCCn1c(CO)nc2c(N)nc3ccccc3c21
112 to 113	CC#CC(C)(C)NC(=O)C(CC)Oc1cncc(C#N)c1 (stereo not drawn)
> 300	O=[N+]([O-])c1cccc2c(Br)cc3nc(O)c(O)nc3c12

melting point [°C]	Compound
243 to 245	O=C(Cl)C1CCN(c2cc(-c3ccccc3)nc3ccc(F)cc23)CC1
73 to 74.5	COC1OC2OC3(C)CCC4C(C)CCC(C1C)C24OO3 (stereo not drawn)
215 to 218	O=C(NC1CC1)c1cccc(-c2ccc3c(c2)N(c2ccc(Cl)cc2Cl)CC3)c1
139 to 140	CC(C)(C)NC(=O)N(CCc1ccccc1)CC(O)C(Cc1ccccc1)NC(=O)C(CC(N)=O)NC(=O)c1ccc2ccccc2n1 (stereo not drawn)
> 300	O=c1c2cc([N+](=O)[O-])ccc2nc2n1CS(=O)(=O)N2
205 to 207	O=C1CC2(C(=O)N1)C(=O)N(Cc1ccc(Cl)c(Cl)c1)c1ccccc12 (stereo not drawn)
163	Cc1c(Cl)cccc1S(=O)(=O)Nc1ccc2onc(C)c2c1
98 to 99	CCOC(=O)C(NC(=O)c1ccc(C)cc1)C(=O)OCC
191 to 192	Cn1cc(-c2ccccc2)c(=O)c(-c2ccco2)c1
190 to 192	CC1(C)CC(=O)c2c(SCc3ccccc3)cn(-c3ccccn3)c2C1
252 to 253	COc1ccc(Cn2c(=O)[nH]c3ccc(Cl)cc3c2=O)cc1
151 to 158	Cc1nc(N)nc(N)c1CCCc1ccccc1C(F)(F)F
126 to 128	C#CCOc1cc(NNC(=S)C(C)(C)C)c(Cl)cc1Cl
116 to 118	CN(CCOc1ccc(C(N)=O)cc1)CCc1ccc([N+](=O)[O-])cc1
124 to 126	O=C(O)CCc1ccc(CO)cc1
168	O=C(O)C(O)c1ccc(-n2cccc2)cc1 (stereo not drawn)
130	COCCC(=O)OC[C@@H](O)[C@@H]1CC(c2ccc(-c3ccc(N4C[C@H](Cn5ccnn5)OC4=O)cc3F)cn2)=NO1
85.3	Cc1c(C(F)(F)F)cnn(-c2cc(OCC3CCC3)c(Cl)cc2F)c1=O
90.5 to 92.5	COC(=O)CCC(=O)c1ccc(-c2ccc(Cl)cc2F)cc1
212 to 214	O=c1cc(C(F)(F)F)c2c(O)cc(O)cc2o1
162 to 164	CCOC(=O)C(=NOC(C)C)c1csc(N)n1
125 to 127	C[Si](C)(C)C#CCCCn1ncc(C#N)c1N
136 to 137	O=C1Nc2ccccc2C1CCCCN1CCN(c2ccc(Cl)cc2)CC1 (stereo not drawn)
149 to 151	CC1(C)SC(C)(C)C1C(=O)O
168 to 169	CC(C)Sc1ccc(NC(=O)c2cc(Cl)ccc2NS(=O)(=O)c2ccc(Cl)cc2)cc1

Compound	melting point [°C]
O=C1Nc2ccc(Br)cc2C(c2ccccc2F)=NC1O (stereo not drawn)	196 to 198
CC(C)OC(=O)Nc1cccc(-c2ccnc3c(C(=O)c4ccccc4)cnn23)c1	116 to 118
O=C(O)c1ncn2c1CN=C(c1ccccc1Br)c1cc(F)ccc1-2	280 to 285
